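Method: 48-hour compound exposure of cells in 96-well plates, five concentrations, linear interpolation of endpoints. Definition used: TGI = concentration required for complete inhibition of growth.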
Assays:
Assay in all cases: inhibition of tumour cell growth, NCI panel, 48 h
A498 renal = tested on: A498 renal
A549 NSCLC = tested on: A549 NSCLC
ACHN renal = tested on: ACHN renal
CCRF-CEM leukemia = tested on: CCRF-CEM leukemia
EKVX NSCLC = tested on: EKVX NSCLC
HCT-116 colon = tested on: HCT-116 colon
HL-60(TB) leukemia = tested on: HL-60(TB) leukemia
IGROV1 ovarian = tested on: IGROV1 ovarian
K-562 leukemia = tested on: K-562 leukemia
MDA-MB-435 = tested on: MDA-MB-435
MDA-N = tested on: MDA-N
NCI-H226 lung = tested on: NCI-H226 lung
NCI-H23 lung = tested on: NCI-H23 lung
NCI-H460 lung = tested on: NCI-H460 lung
OVCAR-8 ovarian = tested on: OVCAR-8 ovarian
RXF 393 renal = tested on: RXF 393 renal
SK-MEL-28 melanoma = tested on: SK-MEL-28 melanoma
UACC-257 melanoma = tested on: UACC-257 melanoma
UO-31 renal = tested on: UO-31 renal

Structure (SMILES) | TGI (A498 renal) [µM] | TGI (A549 NSCLC) [µM] | TGI (ACHN renal) [µM] | TGI (CCRF-CEM leukemia) [µM] | TGI (EKVX NSCLC) [µM] | TGI (HCT-116 colon) [µM] | TGI (HL-60(TB) leukemia) [µM] | TGI (IGROV1 ovarian) [µM] | TGI (K-562 leukemia) [µM] | TGI (MDA-MB-435) [µM] | TGI (MDA-N) [µM] | TGI (NCI-H226 lung) [µM] | TGI (NCI-H23 lung) [µM] | TGI (NCI-H460 lung) [µM] | TGI (OVCAR-8 ovarian) [µM] | TGI (RXF 393 renal) [µM] | TGI (SK-MEL-28 melanoma) [µM] | TGI (UACC-257 melanoma) [µM] | TGI (UO-31 renal) [µM]
O=C1C(=O)c2c(oc(=O)c3ccccc23)-c2ccccc21 | > 25 | > 25 | > 25 | > 25 | > 25 | > 25 | 15 | > 25 | > 25 | 20.9 | > 25 | > 25 | > 25 | > 25 | > 25 | > 25 | > 25 | > 25 | > 25
O=C(c1cc(Cl)cc(Cl)c1)N(C(=O)N1CCN(c2ccccc2)CC1)c1ccccc1 | > 100 | > 100 | > 100 | > 100 | > 100 | > 100 | > 100 | – | > 100 | 48.5 | 30.3 | > 100 | > 100 | > 100 | > 100 | > 100 | > 100 | > 100 | > 100
CO[C@H]1c2cccc3cccc(c23)[C@@H]1n1[nH]c(=O)n(C(C)(C)C)c1=O | > 100 | > 100 | – | > 100 | > 100 | > 100 | > 100 | > 100 | > 100 | > 100 | > 100 | > 100 | > 100 | > 100 | > 100 | > 100 | > 100 | > 100 | > 100
N#CC(C#N)N=Cc1ccncc1 | > 100 | > 100 | > 100 | > 100 | > 100 | > 100 | > 100 | > 100 | > 100 | > 100 | > 100 | > 100 | > 100 | – | > 100 | > 100 | > 100 | > 100 | –
O=C1CC(CC(O)[C@@H]2CCCC[C@@H]2O)CC(=O)N1c1ccccc1 (stereo partly drawn) | > 100 | > 100 | > 100 | > 100 | – | > 100 | > 100 | > 100 | > 100 | > 100 | > 100 | > 100 | > 100 | > 100 | > 100 | > 100 | > 100 | > 100 | > 100
COC(=O)C(Cc1cn(C(C)=O)c2ccccc12)P(=O)(OC)OC (stereo not drawn) | > 100 | > 100 | > 100 | > 100 | – | > 100 | > 100 | > 100 | > 100 | > 100 | > 100 | > 100 | > 100 | > 100 | > 100 | > 100 | > 100 | > 100 | > 100
COc1cccc(OC/C(N=Cc2cccnc2)=N/NC(=O)c2ccncc2)c1 | > 100 | > 100 | > 100 | > 100 | > 100 | > 100 | > 100 | > 100 | > 100 | > 100 | > 100 | > 100 | > 100 | > 100 | > 100 | > 100 | > 100 | > 100 | –
Cc1c(C)c2c(c(N)c1C#N)C(=O)N(CCc1ccccc1)C2=O | > 100 | > 100 | > 100 | > 100 | > 100 | > 100 | > 100 | > 100 | > 100 | > 100 | > 100 | > 100 | – | > 100 | > 100 | > 100 | > 100 | > 100 | > 100
CC[C@](O)(CC(=O)O[C@H]1C(=O)O[C@@H]2C[C@H]3C(C)=CC(=O)[C@@H](O)[C@]3(C)[C@H]3[C@@]4(O)OC[C@]32[C@@H]1[C@@H](C)[C@H]4O)C(C)C | < 0.01 | – | < 0.01 | < 0.01 | < 0.01 | < 0.01 | < 0.01 | < 0.01 | < 0.01 | < 0.01 | < 0.01 | < 0.01 | < 0.01 | < 0.01 | < 0.01 | < 0.01 | < 0.01 | < 0.01 | 0.0447
COc1cc(S(=O)(=O)Nc2nc(-c3ccc(N4C(=O)CSC4c4cccs4)cc3)cs2)ccc1Cl (stereo not drawn) | > 100 | > 100 | > 100 | > 100 | – | > 100 | > 100 | > 100 | > 100 | > 100 | > 100 | > 100 | 89 | > 100 | > 100 | 55.9 | > 100 | > 100 | 73.4
C[C@]12C[C@H](c3ccccc3)Nc3ccccc3N1C(c1ccccc1)=NO2 | > 100 | > 100 | > 100 | > 100 | 92.6 | > 100 | > 100 | > 100 | > 100 | > 100 | > 100 | > 100 | > 100 | > 100 | > 100 | > 100 | – | > 100 | > 100
